Experimental data reported in patent US9801896B2, “Compositions comprising S-adenosylmethionine and a gallic acid ester” (Methylation Sciences International SRL, priority 2012, dated 2017).
Values belong to the molecule of their own block, whether it stands above or below them.

Key:
[1] = PAMPA permeability of SAMe with and without propyl gallate (Example 4); format: in vitro ADME; conditions: for Average Effective Permeability: PAMPA, SAMe 2 mM, 5 hr
Method: Using a PAMPA (parallel artificial membrane permeability assay) model, the permeability of SAMe was measured in the presence and absence of propyl gallate.
PAMPA methods were used to determine the permeability of substances from a donor compartment, through a lipid-infused artificial membrane into an acceptor compartment. A multi-well microtitre plate was used for the donor and a membrane/acceptor compartment is placed on top. At the beginning of the test, SAMe disulfate tosylate (with or without different concentrations of propyl gallate as indicated in Table 2 below) was added to the donor compartment, and the acceptor compartment remained drug-free. After an incubation period, the compartments were separated and the amount of SAMe was measured in each compartment. Mass balance allows calculation of SAMe that remains in the membrane.

[2] = Beagle pharmacokinetics of SAMe tablets with various amounts of propyl gallate (Example 6)
Method: Tablets comprising SAMe and various amounts of propyl gallate were generated by mixing S-adenosyl-L-methionine disulfate tosylate granules (equivalent to 400 mg of SAMe ion) with the various amounts of propyl gallate listed in Table 4 below. Each mixture was pressed into a tablet and coated followed by dissolution profiling and in vivo pharmacokinetic analysis using beagle dogs.
For in vivo studies, fasted male beagle dogs (7-10 kg) were used as described above. Each group (6 dogs for SAMe/propyl gallate and 6 dogs for the SAMe control lacking propyl gallate) were dosed with a single orally administered enteric coated tablet, under fasted conditions, followed by 5 mL of purified water orally with a syringe to facilitate swallowing. Pharmacokinetic blood samples (2 mL each) for SAMe analysis were collected from the jugular vein using the following time points: pre-dose, 20 and 40 minutes, 1, 1.5, 2, 3, 4, 6, and 8 hours after treatment. The venipuncture blood samples were collected into tubes containing the anticoagulant K2-EDTA, and stored on wet ice pending processing. Following collection, samples were centrifuged (at 4° C.) to separate the plasma fraction from the blood cells. […]
The concentration of SAMe in dog plasma was determined using the well established LC/MS/MS method. […]

[3] = Beagle plasma SAMe after tablets of SAMe co-formulated with alkyl gallates (Example 1); format: in vivo; conditions: fasted male beagle dogs, single oral enteric coated tablet, 400 mg SAMe ion co-formulated with 25 mg gallic acid ester; FIG. 1; compared with other formulations
Method: Tablets comprising SAMe and various alkyl gallates of different chemical structure were generated by mixing SAMe with either methyl gallate, ethyl gallate, butyl gallate, isobutyl gallate, isoamyl gallate or octyl gallate (see structures below). Tablets were then administered to Beagle dogs and blood samples were withdrawn over time. Analysis of concentrations of SAMe in plasma was used to compare the effects of these gallic acid esters on the uptake of orally administered SAMe in the blood.
Tablets were generated by mixing 400 mg SAMe ion (from SAMe disulfate tosylate) with 25 mg gallic acid ester along with excipients (microcrystalline cellulose, sodium starch glycolate, silicon dioxide, and magnesium stearate) to make up the 1025 mg tablet. A commercial seal coat and then a commercial enteric coat was applied to the tablets prior to dissolution testing. Detailed dissolution profiling was performed according to USP standards at either pH 6.8 or 6.0 on each set of tablets to ensure that adequate dissolution was achieved prior to in vivo pharmacokinetic analysis.
The study protocol was approved by the institution's Animal Care Committee, and all animals were cared for according to regulations proposed by Agriculture Canada and the USDA.
Ten different formulations were tested in the present study. 400 mg SAMe co-formulated with 25 mg propyl gallate was compared to: SAMe control tablets (i.e., with no propyl gallate); SAMe tablets co-administered with separate 25 mg propyl gallate tablets; a commercially available SAMe product (400 mg); or 400 mg SAMe with 25 mg of either methyl gallate, ethyl gallate, butyl gallate, isobutyl gallate, isoamyl gallate or octyl gallate.

[4] = tested on: Caco-2 cell monolayers; experiment: Permeability of SAMe across Caco-2 cell monolayers with propyl gallate (Example 3)
Method: The Caco-2 cell line is derived from a human colorectal carcinoma and is widely used for in vitro cell culture models for the study of gastrointestinal drug absorption (Stewart, B., (1995) Pharm. Res. 12:693). In these models, pure cell lines are grown on a semi-permeable membrane. Drug formulations are placed on the apical or basolateral side of the cell monolayer and transport is determined via measurement of drug concentrations on the other side of the membrane.
The Caco-2 cell line utilized here was from the American Type Culture Collection (ATCC). Caco-2 cells are grown in Dulbecco's modified Eagle's medium (DMEM, Gibco) supplemented with 20% FBS (fetal bovine serum, Gibco), 100 uM non-essential amino acids (NEAA, Gibco) and 2 mM L-glutamine (Gibco). […] The cells used in transport studies were grown for 3 days before the experiments. The culturing conditions were 37° C. in an atmosphere of 5% CO2 and 100% humidity.
A 2 mM aqueous solution of SAMe disulfate tosylate was added on the apical or basolateral side according to the manufacturer's procedure for the Caco-2 kit.
The permeability (Papp) of SAMe is calculated using the following formula: […]
Where dQ/dt is the rate of permeation, C0 is the initial concentration of test agent, and A is the area of the monolayer.

[5] = Beagle plasma SAMe after capsules of SAMe with gallate-related molecules (Example 2); format: in vivo; conditions: beagle dogs, single oral capsule, 100 mg SAMe ion with 100 mg agent; versus BHT, propyl paraben and gallic acid; FIGS. 2A, 2B
Method: BHT, propyl paraben and propyl gallate are food-grade antioxidants which have often been used in combination. […] The capsules also contained additional excipients (Microcrystalline cellulose, Sodium Starch Glycolate, Colloidal Silicon Dioxide, and Magnesium Stearate). Capsules were manually filled and in some embodiments, a layer of commercial seal coat was applied to the capsules using a fluid bed coater. Beagle dogs were administered a single orally delivered dose as described above.

Molecule: C[S+](CC[C@H](N)C(=O)[O-])C[C@H]1O[C@@H](n2cnc3c(N)ncnc32)[C@H](O)[C@@H]1O (stereo partly drawn) [SAMe, S-adenosyl-L-methionine]
Average Effective Permeability ([1]; Propyl Gallate 0 mM): 0.0042 ×10⁻⁶ cm/s
Average Effective Permeability ([1]; Propyl Gallate 0.2 mM): 0.002 ×10⁻⁶ cm/s
Average Effective Permeability ([1]; Propyl Gallate 2 mM): 0.0048 ×10⁻⁶ cm/s
transport of SAMe across the PAMPA membrane ([1]; summary of Table 2): essentially no transport
AUC(0-inf.) ± SD ([2]; beagle, oral tablet, SAMe 400 mg, Propyl Gallate 6.25 mg): 21,734 ± 9848^ hr*ng/mL

Molecule: CCOC(=O)c1cc(O)c(O)c(O)c1 [ethyl gallate]
maximum SAMe plasma concentration (Cmax), uptake into the plasma [3]: superior uptake into the plasma

Molecule: CCCCOC(=O)c1cc(O)c(O)c(O)c1 [butyl gallate]
maximum SAMe plasma concentration (Cmax), uptake into the plasma [3]: did not result in pharmacokinetics even close to that of SAMe-propyl gallate formulations

Molecule: S-adenosyl-L-methionine disulfate tosylate [SAMe disulfate tosylate]
apparent permeability coefficient (Papp), apical to basolateral ([4]; Caco-2, apical to basolateral, SAMe salt alone): 0.41 ×10⁻⁶ cm/s
apparent permeability coefficient (Papp), basolateral to apical ([4]; Caco-2, basolateral to apical, SAMe salt alone): 0.5 ×10⁻⁶ cm/s

Results, then the molecule that gave them:

maximum SAMe plasma concentration (Cmax), uptake into the plasma [3]: superior uptake into the plasma
Molecule: CCCCCCCCOC(=O)c1cc(O)c(O)c(O)c1 [octyl gallate]

maximum SAMe plasma concentration (Cmax), uptake into the plasma [3]: superior uptake into the plasma
Molecule: CC(C)CCOC(=O)c1cc(O)c(O)c(O)c1 [isoamyl gallate]

effect of propyl gallate on SAMe transport in Caco-2 cells ([4]; summary of Table 1): increases SAMe transport
maximum SAMe plasma concentration (Cmax), uptake into the plasma [3]: superior uptake into the plasma
relationship of propyl gallate with SAMe uptake in vivo ([2]; dog, in vivo): dose-response relationship
plasma SAMe Cmax and AUC, SAMe uptake into the blood [5]: superior and surprising ability
Molecule: CCCOC(=O)c1cc(O)c(O)c(O)c1 [propyl gallate]
